In patent US10792410B2, “Bioartificial liver” (Mayo Foundation for Medical Education and Research, priority 2009, dated 2020):

Assays:
TLR4 + (Wild type) mice = test: Toxin-induced liver injury in TLR4 + (wild type) mice; format: in vivo
Method: (§1) The role of TLR4 in ALF and SIRS was studied. […] A similar protective effect of TLR4 deficiency was also observed when wild-type and TLR4 mutant mice were treated with acetaminophen (APAP) at 500 mg/kg—a dose which is highly toxic with 100% mortality in wild-type mice (Table 2). Systemic inflammation was confirmed in wild-type mice after both APAP and Dgal/LPS by rising blood levels of TNFα and neutrophil infiltration in their lungs at necropsy. In contrast, lung histology and systemic levels of TNFα remained normal in TLR4 deficient mice. […] TLR4 deficient Kupffer cells may also explain the protective effects observed in TLR4 deficient mice after toxin exposure (FIG. 6c). […] Pretreatment with gadolinium chloride reduced the number of Kupffer cells in the liver by 48% (31±6 to 16±4 cells/HPF, p<0.001), and lowered peak ALT levels from 2458±2347 U/mL to 278±196 U/mL.

TLR4 − (Deficient) mice = test: Toxin-induced liver injury in TLR4 − (deficient) mice; format: in vivo; conditions: n = 10/group
Method: as §1

TLR4 = TLR4 agonist activity of mouse serum, luciferase reporter in HEK293/Luc(+)/TLR4(+) cells; format: cell-based; conditions: mouse serum 6 hours after APAP 500 mg/kg vs 0 mg/kg sham controls, p<0.001
Text: FIGS. 7(a)-7(c): (a) TLR4 Signaling Complex is found in many cell types. It can also be stably transfected into reporter cells to measure TLR4 agonist activity in vitro; (b) is a schematic representation of HEK293 cells which have been transfected with TLR4 complex and a luciferase reporter gene to measure TLR4 agonist activity in vitro. The HEK293/Luc(+)/TLR4(+) cells, used to measure TLR4 agonist activity in mouse serum in (c) are used to screen dog serum for TLR4 agonist activity; (c) TLR4 agonist activity was elevated in mouse blood after toxic exposure to APAP (500 vs 0 mg/kg). This in vitro assay is based on a luciferase reporter gene linked to NFκβ in HEK293 cells which responds to TLR4 activation. Only trace background activity was detected in HEK293 cells lacking the TLR4 complex, labeled TLR4(−), confirming specificity of the luciferase activity to TLR4.
Further evidence supporting TLR4 as a signaling molecule in the SIRS response to ALF is illustrated in FIG. 7. FIGS. 7a-b show the assay, as well as the TLR4 receptor complex, used in the study.
TLR4 agonist activity are measured by an in vitro assay using HEK293/Luc(+)/TLR4(+) cells (see, e.g., Akira S, Takeda K. Toll-like receptor signaling. Nat Rev Immunol 2004; 4:499-511). […] Luciferase reporter gene signal are quantified by TD-20/20 luminometer (Turner Designs, Sunnyvale, Calif.). […]

[1] = wild type mice, 6 hr, n = 10/group

CC(=O)Nc1ccc(O)cc1 [APAP, acetaminophen]
ALT, TLR4 + (TLR4 + (Wild type) mice; wild type mice, 18 hr, APAP 500 mg/kg, n = 10/group): 9054 ± 4793 U/mL | mortality (TLR4 + (Wild type) mice; wild-type mice, 500 mg/kg): 100% | ALT, TLR4 − (TLR4 − (Deficient) mice; 18 hr, APAP 500 mg/kg): 4810 ± 4045 U/mL | TLR4 agonist activity in serum (TLR4): high levels of TLR4 agonist activity

N[C@H]1C(O)O[C@H](CO)[C@H](O)[C@@H]1O (stereo partly drawn) [DGal alone, D-galactosamine]
ALT, TLR4 + (TLR4 + (Wild type) mice; [1]): 43 ± 9 U/mL | TUNEL, TLR4 + (TLR4 + (Wild type) mice; [1]): <1 +cells/HPF | ALT, TLR4 − (TLR4 − (Deficient) mice; 6 hr): 54 ± 18 U/mL | TUNEL, TLR4 − (TLR4 − (Deficient) mice; 6 hr): <1 +cells/HPF

[Cl][Gd]([Cl])[Cl] [gadolinium chloride]
number of Kupffer cells in the liver (TLR4 + (Wild type) mice; after pretreatment, 31±6 without): 16±4 cells/HPF | reduction of the number of Kupffer cells in the liver (TLR4 + (Wild type) mice; pretreatment of wild-type mice, p<0.001): 48% | ALT, TLR4 + (TLR4 + (Wild type) mice; [1]): 278±196 U/mL
